[5FU] = 5-fluorouracil base replacing uracil

Data set [1] relates to HCT116 derived colon cancer stem cells. Type of data set: cell-based. As to the method:
For transfections, 1×10^5 cells were plated in six-well plates and transfected with 100 nM of control non-specific miRNA (Thermo Fischer), a modified microRNA, or exogenous native microRNA after 24 hours using Oligofectamine (Thermo Fischer) following the manufacturer's protocols. For reagent free transfection, cells were plated in 6 well plates at (1×10^5) cells per well. Twenty-four hours later 100 pmol miRNA (Control, miR-15a, Mimic-1) were diluted in Optimem (Thermo Fischer) and added to the plate. Media was changed after 24 hours. Media was supplemented with 10% fetal bovine serum (Thermo Fischer). Briefly, cells were cultured in growth media (DMEM/F12 supplemented with B27, 10 ng/mL bFGF, and 20 ng/mL EGF (Life Technologies) in ultra-low attachment flasks) for up to 6 days. The spheroid cells were maintained by collection through gentle centrifugation, dissociation to single cells and replating.
miR-129 mimics eliminated chemotherapy resistant colon cancer stem cells. To determine the impact of certain exemplary modified microRNAs of the present disclosure (i.e., miR-129 mimics) on 5-FU resistant colon cancer stem cells, HCT116 derived colon cancer stem cells were treated with various concentrations of Mimic-1 or 5-FU.

In data set [2] the test system is HCT-116 colon cancer cells. Put plainly: 5-FU treatment and cytotoxicity assay (WST-1). The format is cell-based, human. Particulars: 50 nM modified miR-129 vs 2 μM 5-FU. As to the method: 5-FU treatment and cytotoxicity assay: Twenty-four hours after transfection, cancer cells were plated in 96-well plates at 2×10^3 cells per well in triplicates in 100 μL of medium. After 24 hours, fresh medium containing 2 μM 5-FU alone, 50 nM native microRNA, 50 nM modified microRNA (e.g., modified miR-129), or a combination of […] with 50 nM a modified microRNA of the present disclosure e.g., modified miR-129, were added, and cells were cultured for an additional 72 hours. Cell viability was measured using the WST-1 assay.
For orientation: Formazan colour is commonly taken as a measure of viable cells.

Data set [3] deals with YAP1, BMI1, DCLK1 and BCL2. The data set is described as follows: Western blot of miR-15a targets in HCT-116 colon cancer stem cells. The format is cell-based, human. Particulars: three days following transfection. As to the method: Western immunoblot analysis: […], equal amounts of protein (15 μg) extracted from cells lysed in RIPA buffer with protease inhibitor (Sigma) and were separated on 10%-12% sodium dodecyl sulfate-polyacrylamide gels using standard procedures. The primary antibodies used for the analysis were rabbit anti-YAP1 monoclonal antibody (1:10000) (Cell Signaling Technologies), anti-DLCK1 (1:500) (Abcam), anti-BCL2 (1:500) (NeoMarkers), anti-MDC1 (1:500), anti-SUZ12 (1:500), anti-pChk-1 (1:500), anti beta-actin (1:500), anti-BMI-1 (1:10000) (Cell Signaling Technologies), mouse anti-human TS antibody (1:500), anti-α-tubulin (1:50000) (Santa Cruz Biotech Inc.), anti-GAPDH (1:100000) (Santa Cruz Biotech Inc.), anti-E2F3 (1:500) (Santa Cruz Biotech Inc.), Horseradish peroxidase-conjugated antibodies against mouse or rabbit (1:5000, Santa Cruz Biotech Inc.) were used as the secondary antibodies. Protein bands were visualized with autoradiography film using SuperSignal West Pico Chemiluminescent Substrate (Thermo Fischer). Western blot density was quantified using Image J software. […]
A general note: Immunoblotting shows a protein as a band on a membrane.

As to “CU^FU^FU^FU^FU^FGCGGU^FCU^FGGGCU^FU^FGC (CUUUUUGCGGUCUGGGCUUGC; RNA, [5FU] at 2, 3, 4, 5, 6, 11, 13, 18, 19, backbone not given here) [modified miR-129]”, the “proliferation of HCT116 colon cancer stem cells” value in data set [1] (25 nM, day 6) is “nearly completely blocked”. For the same substance, the “elimination of 5-FU resistant colon cancer stem cells” value in data set [1] (100 nM) is given as “over 80%”. Moreover, the “killing of 5-FU resistant cancer stem cells, dose dependence” value in data set [1] (increasing concentrations, FIG. 6) is “killed 5-FU resistance cancer stem cells in a dose dependent manner”. Moreover, the “inhibiting tumor cell proliferation, potency compared with 5-FU” value in data set [2] is recorded as “much more potent than 2 μM 5-FU”.

On to “U^FAGCAGCACAU^FAAU^FGGU^FU^FU^FGU^FG (UAGCAGCACAUAAUGGUUUGUG; RNA, [5FU] at 1, 11, 14, 17, 18, 19, 21, backbone not given here) [modified miR-15a]”, for which the “protein levels of YAP1, BMI1, DCLK1 and BCL2” value in data set [3] is listed as “reduced”.

These data come from patent US12319913B2, “5-halouracil-modified microRNAs and their use in the treatment of cancer” (The Research Foundation for The State University of New York, priority 2018, dated 2025).
